How the values were obtained:
Test in all cases: KINOMEscan competition binding
Details in all cases: compound 10.0 µM
[1] = target: ACVR1 (human) (UniProt Q04771)
[2] = target: ACVRL1 (human) (UniProt P37023)
[3] = target: AKT1 (human) (UniProt P31749)
[4] = target: AXL (human) (UniProt P30530)
[5] = target: CAMK4 (human) (UniProt Q16566)
[6] = target: CAMKK2 (human) (UniProt Q96RR4)
[7] = target: CDK11B (human) (UniProt P21127)
[8] = target: CDK14 (human) (UniProt O94921)
[9] = target: CLK2 (human) (UniProt P49760)
[10] = target: CLK3 (human) (UniProt P49761)
[11] = target: CSNK1E (human) (UniProt P49674)
[12] = target: CSNK1G2 (human) (UniProt P78368)
[13] = target: EPHA2 (human) (UniProt P29317)
[14] = target: EPHA4 (human) (UniProt P54764)
[15] = target: EPHB3 (human) (UniProt P54753)
[16] = target: ERBB2 (human) (UniProt P04626)
[17] = target: HCK (human) (UniProt P08631)
[18] = target: ITK (human) (UniProt Q08881)
[19] = target: LTK (human) (UniProt P29376)
[20] = target: MAP3K11 (human) (UniProt Q16584)
[21] = target: MAP3K3 (human) (UniProt Q99759)
[22] = target: MAP4K5 (human) (UniProt Q9Y4K4)
[23] = target: MAPK11 (human) (UniProt Q15759)
[24] = target: MARK1 (human) (UniProt Q9P0L2)
[25] = target: MARK4 (human) (UniProt Q96L34)
[26] = target: MYLK4 (human) (UniProt Q86YV6)
[27] = target: NUAK2 (human) (UniProt Q9H093)
[28] = target: PIK3CB (human) (UniProt P42338)
[29] = target: PIM1 (human) (UniProt P11309)
[30] = target: PRKCD (human) (UniProt Q05655)
[31] = target: PTK2 (human) (UniProt Q05397)
[32] = target: STK32C (human) (UniProt Q86UX6)
[33] = target: STK36 (human) (UniProt Q9NRP7)
[34] = target: DYRK1A (human) (UniProt Q13627)
[35] = target: GRK1 (human) (UniProt Q15835)
[36] = target: HIPK2 (human) (UniProt Q9H2X6)
[37] = target: MAP3K2 (human) (UniProt Q9Y2U5)
[38] = target: MAST1 (human) (UniProt Q9Y2H9)
[39] = target: MATK (human) (UniProt P42679)

MAPK11 (human), sequence (Q15759 whole entry, looked up): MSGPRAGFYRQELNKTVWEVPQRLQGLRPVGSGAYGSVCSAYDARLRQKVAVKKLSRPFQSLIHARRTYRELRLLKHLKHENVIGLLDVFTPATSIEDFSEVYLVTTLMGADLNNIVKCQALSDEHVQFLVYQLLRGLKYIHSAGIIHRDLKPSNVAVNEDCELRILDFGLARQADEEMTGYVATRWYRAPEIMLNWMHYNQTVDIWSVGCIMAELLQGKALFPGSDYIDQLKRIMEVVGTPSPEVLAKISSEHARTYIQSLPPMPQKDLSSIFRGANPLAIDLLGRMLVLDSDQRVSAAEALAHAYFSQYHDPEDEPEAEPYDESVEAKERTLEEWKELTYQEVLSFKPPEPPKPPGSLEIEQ
PIK3CB (human), sequence (P42338 whole entry, looked up): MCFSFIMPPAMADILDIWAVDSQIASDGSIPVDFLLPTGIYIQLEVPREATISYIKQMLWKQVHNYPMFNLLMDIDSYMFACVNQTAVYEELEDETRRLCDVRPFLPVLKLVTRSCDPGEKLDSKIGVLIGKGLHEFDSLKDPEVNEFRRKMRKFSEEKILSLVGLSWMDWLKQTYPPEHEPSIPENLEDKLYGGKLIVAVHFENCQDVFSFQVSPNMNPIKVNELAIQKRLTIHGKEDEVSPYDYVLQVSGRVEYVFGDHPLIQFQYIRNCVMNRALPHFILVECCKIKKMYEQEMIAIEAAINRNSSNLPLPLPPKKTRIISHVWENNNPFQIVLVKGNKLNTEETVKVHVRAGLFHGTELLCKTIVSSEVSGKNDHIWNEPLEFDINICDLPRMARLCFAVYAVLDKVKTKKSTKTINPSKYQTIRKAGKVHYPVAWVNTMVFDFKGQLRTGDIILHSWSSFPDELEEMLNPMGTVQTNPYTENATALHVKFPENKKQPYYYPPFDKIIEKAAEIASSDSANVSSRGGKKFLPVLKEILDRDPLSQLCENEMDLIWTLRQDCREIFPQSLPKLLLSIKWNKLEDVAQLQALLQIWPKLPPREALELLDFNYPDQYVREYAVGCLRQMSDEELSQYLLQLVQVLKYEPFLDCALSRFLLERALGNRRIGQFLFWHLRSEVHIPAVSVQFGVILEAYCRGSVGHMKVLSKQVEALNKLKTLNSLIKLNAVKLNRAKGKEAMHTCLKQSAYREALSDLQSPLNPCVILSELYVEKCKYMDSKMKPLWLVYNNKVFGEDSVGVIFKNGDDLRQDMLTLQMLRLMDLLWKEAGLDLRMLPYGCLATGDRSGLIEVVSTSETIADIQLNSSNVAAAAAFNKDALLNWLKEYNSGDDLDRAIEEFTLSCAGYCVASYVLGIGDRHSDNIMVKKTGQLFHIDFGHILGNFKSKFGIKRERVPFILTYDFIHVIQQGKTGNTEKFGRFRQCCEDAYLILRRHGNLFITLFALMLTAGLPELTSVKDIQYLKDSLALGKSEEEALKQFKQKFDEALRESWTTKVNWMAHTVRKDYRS
AKT1 (human), sequence (P31749 whole entry, looked up): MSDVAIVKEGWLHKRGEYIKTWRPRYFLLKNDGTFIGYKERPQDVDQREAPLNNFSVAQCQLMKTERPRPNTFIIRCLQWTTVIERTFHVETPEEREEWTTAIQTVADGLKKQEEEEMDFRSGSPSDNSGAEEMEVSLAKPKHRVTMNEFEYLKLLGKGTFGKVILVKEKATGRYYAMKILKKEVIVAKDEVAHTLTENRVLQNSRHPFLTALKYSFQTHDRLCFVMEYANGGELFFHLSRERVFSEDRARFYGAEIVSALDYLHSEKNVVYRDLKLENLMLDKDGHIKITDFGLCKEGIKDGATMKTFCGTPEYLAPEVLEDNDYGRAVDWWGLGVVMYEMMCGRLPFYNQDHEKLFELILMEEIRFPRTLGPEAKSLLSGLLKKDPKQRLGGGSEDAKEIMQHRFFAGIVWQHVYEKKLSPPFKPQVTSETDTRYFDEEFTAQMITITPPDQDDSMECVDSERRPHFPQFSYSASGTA
STK36 (human), sequence (Q9NRP7 whole entry, looked up): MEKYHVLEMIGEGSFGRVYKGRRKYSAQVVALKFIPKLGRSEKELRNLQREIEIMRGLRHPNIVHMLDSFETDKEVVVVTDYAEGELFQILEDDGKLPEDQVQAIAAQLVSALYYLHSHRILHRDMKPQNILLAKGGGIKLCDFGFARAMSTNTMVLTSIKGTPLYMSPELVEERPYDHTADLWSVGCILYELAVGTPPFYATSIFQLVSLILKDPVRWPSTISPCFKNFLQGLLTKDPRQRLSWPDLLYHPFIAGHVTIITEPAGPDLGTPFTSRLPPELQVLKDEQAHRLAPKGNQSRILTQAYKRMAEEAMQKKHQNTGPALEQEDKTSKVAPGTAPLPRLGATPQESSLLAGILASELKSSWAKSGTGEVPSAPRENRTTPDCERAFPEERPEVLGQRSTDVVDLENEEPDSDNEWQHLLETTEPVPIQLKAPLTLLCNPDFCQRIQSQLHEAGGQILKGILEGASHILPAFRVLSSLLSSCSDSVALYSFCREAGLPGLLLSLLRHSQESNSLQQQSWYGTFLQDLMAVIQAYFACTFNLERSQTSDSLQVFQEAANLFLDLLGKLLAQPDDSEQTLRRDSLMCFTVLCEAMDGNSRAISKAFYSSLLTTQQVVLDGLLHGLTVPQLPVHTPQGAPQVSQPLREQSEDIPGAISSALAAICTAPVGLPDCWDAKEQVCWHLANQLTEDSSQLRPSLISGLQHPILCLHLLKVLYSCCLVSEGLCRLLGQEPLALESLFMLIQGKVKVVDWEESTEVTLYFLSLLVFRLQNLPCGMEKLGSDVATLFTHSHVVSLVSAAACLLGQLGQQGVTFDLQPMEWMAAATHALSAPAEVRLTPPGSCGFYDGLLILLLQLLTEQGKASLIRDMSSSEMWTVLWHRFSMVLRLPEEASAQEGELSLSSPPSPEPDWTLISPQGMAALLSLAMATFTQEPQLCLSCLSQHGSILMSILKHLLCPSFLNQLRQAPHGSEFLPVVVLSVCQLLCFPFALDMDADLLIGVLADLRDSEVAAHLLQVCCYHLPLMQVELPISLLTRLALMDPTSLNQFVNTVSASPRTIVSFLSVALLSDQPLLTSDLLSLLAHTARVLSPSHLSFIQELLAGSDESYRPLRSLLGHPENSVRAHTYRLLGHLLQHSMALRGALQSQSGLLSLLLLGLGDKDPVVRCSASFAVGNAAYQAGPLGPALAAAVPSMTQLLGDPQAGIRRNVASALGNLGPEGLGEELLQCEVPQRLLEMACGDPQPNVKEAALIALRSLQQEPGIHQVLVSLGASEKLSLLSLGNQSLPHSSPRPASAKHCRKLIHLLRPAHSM
MYLK4 (human), sequence (Q86YV6 whole entry, looked up): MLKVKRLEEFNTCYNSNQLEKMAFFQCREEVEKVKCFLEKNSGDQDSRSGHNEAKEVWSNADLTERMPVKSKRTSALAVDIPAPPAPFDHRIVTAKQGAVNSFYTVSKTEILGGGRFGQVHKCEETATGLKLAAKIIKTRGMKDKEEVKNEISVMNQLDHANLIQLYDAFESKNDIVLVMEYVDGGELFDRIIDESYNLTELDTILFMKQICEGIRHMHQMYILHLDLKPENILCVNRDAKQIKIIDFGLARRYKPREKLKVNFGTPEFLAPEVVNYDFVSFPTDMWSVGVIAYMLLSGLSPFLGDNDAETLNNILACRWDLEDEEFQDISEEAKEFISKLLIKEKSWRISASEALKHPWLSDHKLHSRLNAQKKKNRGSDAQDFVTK
MAP3K11 (human), sequence (Q16584 whole entry, looked up): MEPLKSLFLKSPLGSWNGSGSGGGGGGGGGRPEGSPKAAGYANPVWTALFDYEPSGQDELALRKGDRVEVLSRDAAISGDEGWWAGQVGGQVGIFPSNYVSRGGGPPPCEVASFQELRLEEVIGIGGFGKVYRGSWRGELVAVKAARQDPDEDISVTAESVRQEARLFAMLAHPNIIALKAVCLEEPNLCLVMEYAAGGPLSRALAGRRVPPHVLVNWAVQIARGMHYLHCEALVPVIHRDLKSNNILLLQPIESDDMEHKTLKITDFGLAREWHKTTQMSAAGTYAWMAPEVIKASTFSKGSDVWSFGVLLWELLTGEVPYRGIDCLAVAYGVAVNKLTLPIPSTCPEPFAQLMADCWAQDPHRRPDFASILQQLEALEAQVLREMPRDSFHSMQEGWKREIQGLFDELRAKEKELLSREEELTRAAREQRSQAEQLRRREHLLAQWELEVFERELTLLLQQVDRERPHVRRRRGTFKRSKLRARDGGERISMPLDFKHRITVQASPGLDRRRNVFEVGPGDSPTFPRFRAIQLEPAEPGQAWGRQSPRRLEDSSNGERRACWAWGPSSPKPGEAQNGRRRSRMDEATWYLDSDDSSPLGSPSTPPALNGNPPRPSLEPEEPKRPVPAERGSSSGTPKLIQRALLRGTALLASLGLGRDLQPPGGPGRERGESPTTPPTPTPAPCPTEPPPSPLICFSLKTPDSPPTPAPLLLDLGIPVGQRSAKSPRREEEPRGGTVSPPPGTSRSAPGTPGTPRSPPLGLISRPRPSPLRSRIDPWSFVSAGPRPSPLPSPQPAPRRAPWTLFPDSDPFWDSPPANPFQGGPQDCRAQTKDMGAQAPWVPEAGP
ACVR1 (human), sequence (Q04771 whole entry, looked up): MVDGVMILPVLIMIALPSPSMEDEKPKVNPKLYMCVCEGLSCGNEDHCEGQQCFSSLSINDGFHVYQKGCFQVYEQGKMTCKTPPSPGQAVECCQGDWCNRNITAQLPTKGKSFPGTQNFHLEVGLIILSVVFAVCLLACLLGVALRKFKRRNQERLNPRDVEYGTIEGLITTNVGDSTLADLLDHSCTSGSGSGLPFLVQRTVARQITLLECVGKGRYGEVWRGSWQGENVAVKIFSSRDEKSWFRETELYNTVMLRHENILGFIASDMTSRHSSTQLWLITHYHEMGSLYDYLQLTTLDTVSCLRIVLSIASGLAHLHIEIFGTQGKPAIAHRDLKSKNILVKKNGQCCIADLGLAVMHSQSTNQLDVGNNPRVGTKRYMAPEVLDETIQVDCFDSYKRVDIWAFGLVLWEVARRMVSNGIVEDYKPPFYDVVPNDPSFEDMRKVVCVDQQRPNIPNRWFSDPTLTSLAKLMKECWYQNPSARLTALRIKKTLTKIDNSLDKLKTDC

SMILES	kinase still bound, per cent of control [1] [%]	kinase still bound, per cent of control [2] [%]	kinase still bound, per cent of control [3] [%]	kinase still bound, per cent of control [4] [%]	kinase still bound, per cent of control [5] [%]	kinase still bound, per cent of control [6] [%]	kinase still bound, per cent of control [7] [%]	kinase still bound, per cent of control [8] [%]	kinase still bound, per cent of control [9] [%]	kinase still bound, per cent of control [10] [%]	kinase still bound, per cent of control [11] [%]	kinase still bound, per cent of control [12] [%]	kinase still bound, per cent of control [13] [%]	kinase still bound, per cent of control [14] [%]	kinase still bound, per cent of control [15] [%]	kinase still bound, per cent of control [16] [%]	kinase still bound, per cent of control [17] [%]	kinase still bound, per cent of control [18] [%]	kinase still bound, per cent of control [19] [%]	kinase still bound, per cent of control [20] [%]	further results
COc1cc(C)c(Sc2cnc(NC(=O)c3ccc(CNC(C)C(C)C)cc3)s2)cc1C(=O)N1CCN(C(C)=O)CC1 (stereo unspecified)	100	100	100	4	100	24	100	100	3.7	19	100	100	25	100	100	100	100	0.25	34	100	kinase still bound, per cent of control [21]: 100%; kinase still bound, per cent of control [22]: 100%; kinase still bound, per cent of control [23]: 100%; kinase still bound, per cent of control [24]: 100%; kinase still bound, per cent of control [25]: 100%; kinase still bound, per cent of control [26]: 100%; kinase still bound, per cent of control [27]: 25%; kinase still bound, per cent of control [28]: 100%; kinase still bound, per cent of control [29]: 100%; kinase still bound, per cent of control [30]: 100%; kinase still bound, per cent of control [31]: 100%; kinase still bound, per cent of control [32]: 100%; kinase still bound, per cent of control [33]: 100%
COc1ccc(N(C(=O)Oc2cc(C(=O)Nc3cccc(C(F)(F)F)c3)ccc2C)c2ccnc(Nc3ccc(N4CCN(C)CC4)cc3)n2)c(OC)c1	100	100	100	100	100	100	8.3	100	100	100	100	100	4.2	2.4	0	100	0.2	100	2.7	100	kinase still bound, per cent of control [22]: 1.6%; kinase still bound, per cent of control [23]: 1.9%; kinase still bound, per cent of control [24]: 100%; kinase still bound, per cent of control [25]: 100%; kinase still bound, per cent of control [26]: 100%; kinase still bound, per cent of control [27]: 100%; kinase still bound, per cent of control [29]: 100%; kinase still bound, per cent of control [30]: 100%; kinase still bound, per cent of control [31]: 4.6%; kinase still bound, per cent of control [32]: 100%; kinase still bound, per cent of control [33]: 1.2%
COc1cc(N2CCC(C(N)=O)CC2)ccc1Nc1nc(N)c(Cl)c(Nc2ccccc2S(=O)(=O)C(C)C)n1	100	100	100	8.6	13	6.5	100	100	4.6	8.3	34	100	100	100	100	18	24	100	0.6	100	kinase still bound, per cent of control [21]: 100%; kinase still bound, per cent of control [22]: 100%; kinase still bound, per cent of control [23]: 100%; kinase still bound, per cent of control [24]: 100%; kinase still bound, per cent of control [25]: 100%; kinase still bound, per cent of control [26]: 100%; kinase still bound, per cent of control [27]: 100%; kinase still bound, per cent of control [28]: 100%; kinase still bound, per cent of control [29]: 100%; kinase still bound, per cent of control [30]: 100%; kinase still bound, per cent of control [31]: 0%; kinase still bound, per cent of control [32]: 33%; kinase still bound, per cent of control [33]: 100%
Cc1cn(-c2cc(C(=O)Nc3ccc(C)c(NC(=O)c4ccno4)c3)cc(C(F)(F)F)c2)cn1	100	100	100	100	100	100	100	100	100	100	100	100	1.6	4	27	100	1.4	100	100	100	kinase still bound, per cent of control [34]: 100%; kinase still bound, per cent of control [35]: 100%; kinase still bound, per cent of control [36]: 100%; kinase still bound, per cent of control [37]: 100%; kinase still bound, per cent of control [21]: 100%; kinase still bound, per cent of control [22]: 100%; kinase still bound, per cent of control [23]: 0%; kinase still bound, per cent of control [24]: 100%; kinase still bound, per cent of control [25]: 100%; kinase still bound, per cent of control [38]: 100%; kinase still bound, per cent of control [39]: 100%; kinase still bound, per cent of control [26]: 100%; kinase still bound, per cent of control [27]: 100%; kinase still bound, per cent of control [28]: 100%; kinase still bound, per cent of control [29]: 100%; kinase still bound, per cent of control [30]: 100%; kinase still bound, per cent of control [31]: 100%; kinase still bound, per cent of control [32]: 100%; kinase still bound, per cent of control [33]: 100%

— the kinase profiling compilation of Christmann-Franck et al. (2016)
